Test results as given in ChEMBL document CHEMBL1150434, “Semisynthetic modification of hygromycin A. 1. Synthesis and antibacterial activity of vinyl methyl and amide analogs” (1992).
In brackets after ≈: the same amount, converted by molar mass. Activity calls are given as the source filed them. The rule behind the calls is not given here.

Assays:
[1] = test system: Brachyspira hyodysenteriae; experiment: Antibacterial activity against Serpulina hyodysenteriae; type: functional
[2] = test system: Brachyspira hyodysenteriae; experiment: Tested for antibacterial activity against Serpulina hyodysenteriae at a concentration of up to 200 ug/mL; IA= Inactive; type: functional, organism-based

CCC/C(=C\c1ccc(O[C@@H]2O[C@H]([C@@H](C)O)[C@@H](O)[C@@H]2O)c(O)c1)C(=O)N[C@@H]1[C@H](O)[C@@H](O)[C@H]2OCO[C@H]2[C@@H]1O
MIC [1]: > 200 µg/mL

C/C(=C\c1ccc(O[C@@H]2O[C@H]([C@H](C)O)[C@@H](O)[C@@H]2O)c(O)c1)C(=O)N[C@@H]1CCCC[C@H]1O
Activity [2]: inactive

C=CC/C(=C\c1ccc(O[C@@H]2O[C@H]([C@@H](C)O)[C@@H](O)[C@@H]2O)c(O)c1)C(=O)N[C@@H]1[C@H](O)[C@@H](O)[C@H]2OCO[C@H]2[C@@H]1O
MIC [1]: > 200 µg/mL

C/C(=C\c1ccc(O[C@@H]2O[C@H]([C@H](C)O)[C@@H](O)[C@@H]2O)c(O)c1)C(=O)NCCO
Activity [2]: inactive

C/C(=C\c1ccc(O[C@@H]2O[C@H]([C@H](C)O)[C@@H](O)[C@@H]2O)c(O)c1)C(=O)NC1CCCCC1
Activity [2]: inactive

C#CC/C(=C\c1ccc(O[C@@H]2O[C@H]([C@@H](C)O)[C@@H](O)[C@@H]2O)c(O)c1)C(=O)N[C@@H]1[C@H](O)[C@@H](O)[C@H]2OCO[C@H]2[C@@H]1O
MIC [1]: 100 µg/mL (≈ 186 µM)

C/C(=C\c1ccc(O[C@@H]2O[C@H]([C@H](C)O)[C@@H](O)[C@@H]2O)c(O)c1)C(=O)N[C@H]1C(O)O[C@H](CO)[C@@H](O)[C@@H]1O (some centres not stated)
Activity [2]: inactive

C/C(=C\c1ccc(O[C@@H]2O[C@H]([C@H](C)O)[C@@H](O)[C@@H]2O)c(O)c1)C(=O)N1CCN(C(=O)N2CCNCC2)CC1
Activity [2]: inactive

C[C@@H](O)[C@H]1O[C@@H](Oc2ccc(/C=C(\Br)C(=O)N[C@@H]3[C@H](O)[C@@H](O)[C@H]4OCO[C@H]4[C@@H]3O)cc2O)[C@@H](O)[C@@H]1O
MIC [1]: 3.13 µg/mL (≈ 5.41 µM)

C/C(=C\c1ccc(O[C@@H]2O[C@H]([C@H](C)O)[C@@H](O)[C@@H]2O)c(O)c1)C(=O)N[C@H]1CC[C@H](O)CC1
Activity [2]: inactive

C/C(=C\c1ccc(O[C@@H]2O[C@H]([C@H](C)O)[C@@H](O)[C@@H]2O)c(O)c1)C(=O)N1CCC[C@H]1CO
Activity [2]: inactive

C/C(=C\c1ccc(O[C@@H]2O[C@H]([C@H](C)O)[C@@H](O)[C@@H]2O)c(O)c1)C(=O)N1CCN(C)CC1
Activity [2]: inactive

C/C(=C\c1ccc(O[C@@H]2O[C@H]([C@H](C)O)[C@@H](O)[C@@H]2O)c(O)c1)C(=O)N1CCCCC1CO (some centres not stated)
Activity [2]: inactive

C/C(=C\c1ccc(O[C@@H]2O[C@H]([C@H](C)O)[C@@H](O)[C@@H]2O)c(O)c1)C(=O)NC(CO)CO
Activity [2]: inactive

CC(=O)[C@H]1O[C@@H](Oc2ccc(C=C(C)C(=O)N[C@@H]3[C@H](O)[C@@H](O)[C@H]4OCO[C@H]4[C@@H]3O)cc2O)[C@@H](O)[C@@H]1O [HYGROMYCIN A]
MIC [1]: 0.78 µg/mL (≈ 1.52 µM)

C[C@@H](O)[C@H]1O[C@@H](Oc2ccc(/C=C(\Cl)C(=O)N[C@@H]3[C@H](O)[C@@H](O)[C@H]4OCO[C@H]4[C@@H]3O)cc2O)[C@@H](O)[C@@H]1O
MIC [1]: 6.25 µg/mL (≈ 11.7 µM)

C/C(=C\c1ccc(O[C@@H]2O[C@H]([C@H](C)O)[C@@H](O)[C@@H]2O)c(O)c1)C(=O)N1CCOCC1
Activity [2]: inactive

C/C(=C\c1ccc(O[C@@H]2O[C@H]([C@H](C)O)[C@@H](O)[C@@H]2O)c(O)c1)C(=O)N[C@@H]1CCCC[C@@H]1O
Activity [2]: inactive

C/C(=C\c1ccc(O[C@@H]2O[C@H]([C@@H](C)O)[C@@H](O)[C@@H]2O)c(O)c1)C(=O)N[C@@H]1[C@H](O)[C@@H](O)[C@H]2OCO[C@H]2[C@@H]1O
MIC [1]: 3.13 µg/mL (≈ 6.1 µM)

C/C(=C\c1ccc(O[C@@H]2O[C@H]([C@H](C)O)[C@@H](O)[C@@H]2O)c(O)c1)C(=O)N1CCNCC1
Activity [2]: inactive

C/C(=C\c1ccc(O[C@@H]2O[C@H]([C@H](C)O)[C@@H](O)[C@@H]2O)c(O)c1)C(=O)N[C@@H]1C(O)O[C@H](CO)[C@@H](O)[C@@H]1O (some centres not stated)
Activity [2]: inactive

C/C(=C\c1ccc(O[C@@H]2O[C@H]([C@H](C)O)[C@@H](O)[C@@H]2O)c(O)c1)C(=O)N[C@@H]1CCC[C@H]1O
Activity [2]: inactive

C/C(=C\c1ccc(O[C@@H]2O[C@H]([C@H](C)O)[C@@H](O)[C@@H]2O)c(O)c1)C(=O)NC1(CO)CCCC1
Activity [2]: inactive

C/C(=C\c1ccc(O[C@@H]2O[C@H]([C@H](C)O)[C@@H](O)[C@@H]2O)c(O)c1)C(=O)N[C@@H]1CCC[C@@H]1O
Activity [2]: inactive

CC/C(=C\c1ccc(O[C@@H]2O[C@H]([C@@H](C)O)[C@@H](O)[C@@H]2O)c(O)c1)C(=O)N[C@@H]1[C@H](O)[C@@H](O)[C@H]2OCO[C@H]2[C@@H]1O
MIC [1]: 3.13 µg/mL (≈ 5.93 µM)

C/C(=C\c1ccc(O[C@@H]2O[C@H]([C@H](C)O)[C@@H](O)[C@@H]2O)c(O)c1)C(=O)N1CCC[C@H]1C(=O)O
Activity [2]: inactive

C[C@@H](O)[C@H]1O[C@@H](Oc2ccc(/C=C/C(=O)N[C@@H]3[C@H](O)[C@@H](O)[C@H]4OCO[C@H]4[C@@H]3O)cc2O)[C@@H](O)[C@@H]1O
MIC [1]: 100 µg/mL (≈ 200 µM)
